Usually melting point stands for the temperature, or range, at which the solid turns liquid.

Molecules are shown by their SMILES.

This note sets out measurements from patent US11753407B2, “Compounds for treating spinal muscular atrophy” (PTC Therapeutics, Inc., priority 2012, dated 2023).

Data set [1] deals with SMN2 minigene mRNA (SMN2-A minigene) in HEK293H cells. Nature of the data set: SMN2 minigene mRNA splicing RT-qPCR assay in cultured cells. It counts as cell-based, human. As to conditions: Homo sapiens, HEK293-H; concentration increasing full length SMN2 mRNA 1.5-fold relative to vehicle-treated cells; HEK293H cells with SMN2-A minigene, 24 hours, 7-point concentration data; read-out: EC1.5x for production of full length SMN2 mRNA. In outline:
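HEK293H cells stably carrying the SMN2-A minigene were treated for 24 h at 37 °C with a 7-point, 3.16-fold dilution series of compound. Multiplex RT-qPCR measured exon 7-containing minigene FL mRNA against GAPDH, expressed relative to vehicle by modified ΔΔCt; the EC1.5× is the concentration giving a 1.5-fold increase.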
On the technique in general: Quantitative PCR measures a nucleic acid by following its amplification.

The subject of data set [2] is Smn protein in SMA patient fibroblast cells (GM03813). Nature of the data set: Smn protein assay in cultured cells (SMN HTRF). As to conditions: SMA patient fibroblast cells, 48 hours; for EC1.5x for Smn protein expression: 7-point concentration curve, SMN HTRF, concentration producing 1.5 times Smn protein vs DMSO vehicle control; for maximum fold (Fold) increase of Smn protein: 7-point concentration data, fold relative to vehicle control. It counts as cell-based, human. In outline:
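SMA patient fibroblasts (5,000 cells/well, DMEM-10% FBS) were treated for 48 h at 37 °C with a 7-point, 3.16-fold dilution series in triplicate. RIPA lysates were probed by HTRF (anti-SMN d2/kryptate, overnight, room temperature), reading 665/620 nm. EC1.5× is the concentration giving 1.5-fold Smn over DMSO vehicle.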
On the technique in general: TR-FRET usually uses a lanthanide donor and a delayed reading to cut background.

In turn, `Cc1cn2cc(-c3cc(=O)n4cc(N5CCN(C)[C@H](C)C5)ccc4n3)cc(F)c2n1` [Compound 296, 7-[(3R)-3,4-dimethylpiperazin-1-yl]-2-(8-fluoro-2-methylimidazo[1,2-a]pyridin-6-yl)-4H-pyrido[1,2-a]pyrimidin-4-one] came in with a melting point of 279 to 282 °C. In data set [1], the EC (1.5-fold increase) was < 0.1 µM. Moreover, in data set [2], the “EC1.5x for Smn protein expression” value is given as “**** (an EC1.5x≤0.3 μM is indicated by four stars (****))” and the “maximum fold (Fold) increase of Smn protein” value (from here on “maximum fold (Fold) increase”) is recorded as “***** (a fold increase >1.65 is indicated by five stars (*****))”.
Take `Cc1nc2c(F)cc(-c3cc(=O)n4cc(N5CCN[C@@H](C)C5)ccc4n3)cc2o1` [Cpd 306, 2-(4-fluoro-2-methyl-1,3-benzoxazol-6-yl)-7-[(3S)-3-methylpiperazin-1-yl]-4H-pyrido[1,2-a]pyrimidin-4-one]: the melting point was 207 to 209 °C. For the same compound, in data set [1], the EC (1.5-fold increase) is < 0.1 µM. In data set [2], the “EC1.5x for Smn protein expression” value is reported as “**** (an EC1.5x≤0.3 μM is indicated by four stars (****))” and the “maximum fold (Fold) increase” value was “***** (a fold increase >1.65 is indicated by five stars (*****))”.
Compound `COc1ccc(-c2cc(=O)n3cc(C4=CCN(C5COC5)CC4)cc(C)c3n2)cc1OC` [Compound 386, 2-(3,4-dimethoxyphenyl)-9-methyl-7-[1-(oxetan-3-yl)-1,2,3,6-tetrahydropyridin-4-yl]-4H-pyrido[1,2-a]pyrimidin-4-one] gave a melting point of 180 to 195 °C. In addition, in data set [1], the EC (1.5-fold increase) is 0.3 to 1 µM. Besides, the “maximum fold (Fold) increase” value in data set [2] is on record as “* (A maximum fold increase of ≤1.2 is indicated by one star (*))”.
Regarding `Cc1cn2nc(-c3cc(=O)n4nc(C5CCN(C)CC5)ccc4n3)cc2c(C)n1` [Compound 513, 2-(4,6-dimethylpyrazolo[1,5-a]pyrazin-2-yl)-7-(1-methylpiperidin-4-yl)-4H-pyrimido[1,2-b]pyridazin-4-one], the melting point lay within 265 to 267 °C. For the same compound, in data set [1], the EC (1.5-fold increase) lay in the range of 0.1 to 0.3 µM. Moreover, in data set [2], the “EC1.5x for Smn protein expression” value was “**** (an EC1.5x≤0.3 μM is indicated by four stars (****))” and the “maximum fold (Fold) increase” value is “***** (a fold increase >1.65 is indicated by five stars (*****))”.
Regarding `Cc1cn2nc(-c3cc(=O)n4cc(N5C[C@@H]6C[C@H]5CN6C)ccc4n3)cc2c(C)n1` [Compound 400, 2-(4,6-dimethylpyrazolo[1,5-a]pyrazin-2-yl)-7-[(1S,4S)-5-methyl-2,5-diazabicyclo[2.2.1]hept-2-yl]-4H-pyrido[1,2-a]pyrimidin-4-one], the melting point lay within 188 to 191 °C. In addition, the EC (1.5-fold increase) in data set [1] lay within 0.1 to 0.3 µM. Besides, in data set [2], the “EC1.5x for Smn protein expression” value was “*** (an EC1.5× between >0.3 μM and ≤1 μM is indicated by three stars (***))”; the “maximum fold (Fold) increase” value is “**** (a fold increase between >1.5 and ≤1.65 is indicated by four stars (****))”.
As to `COc1ccc(-c2cc(=O)n3cc(N4CCNCC4)ccc3n2)cn1` [Compound 88, 2-(6-methoxypyridin-3-yl)-7-(piperazin-1-yl)-4H-pyrido[1,2-a]pyrimidin-4-one], the melting point fell in the range of 173 to 178 °C. Further, in data set [1], the EC (1.5-fold increase) fell in the range of 1 to 3 µM. In addition, in data set [2], the “maximum fold (Fold) increase” value is “** (a fold increase between >1.2 and ≤1.35 is indicated by two stars (**))”.
On to `O=c1cc(-c2ccc3cc[nH]c3c2)nc2ccc(N3CCNCC3)cn12` [Compound 97, 2-(1H-indol-6-yl)-7-(piperazin-1-yl)-4H-pyrido[1,2-a]pyrimidin-4-one], for which the melting point lay in the range of 202 to 206 °C. In addition, the EC (1.5-fold increase) in data set [1] was in the range of 1 to 3 µM. For the same compound, in data set [2], the “maximum fold (Fold) increase” value was “** (a fold increase between >1.2 and ≤1.35 is indicated by two stars (**))”.
`COc1ccc(-c2cc(=O)n3cc(N4CCCNCC4)cc(C)c3n2)cc1OC` [Compound 238, 7-(1,4-diazepan-1-yl)-2-(3,4-dimethoxyphenyl)-9-methyl-4H-pyrido[1,2-a]pyrimidin-4-one] displayed a melting point of 160 to 177 °C. Besides, in data set [1], the EC (1.5-fold increase) was in the range of 0.3 to 1 µM. In addition, the “maximum fold (Fold) increase” value in data set [2] was “** (a fold increase between >1.2 and ≤1.35 is indicated by two stars (**))”.
As for `Cc1nc2c(F)cc(-c3cc(=O)n4cc(N5CCN(C)[C@@H](C)C5)ccc4n3)cc2o1` [Compound 307, 7-[(3S)-3,4-dimethylpiperazin-1-yl]-2-(4-fluoro-2-methyl-1,3-benzoxazol-6-yl)-4H-pyrido[1,2-a]pyrimidin-4-one], the melting point was 194 to 196 °C. The EC (1.5-fold increase) in data set [1] is < 0.1 µM. Also, in data set [2], the “EC1.5x for Smn protein expression” value is reported as “**** (an EC1.5x≤0.3 μM is indicated by four stars (****))”; the “maximum fold (Fold) increase” value was “**** (a fold increase between >1.5 and ≤1.65 is indicated by four stars (****))”.
With `COc1ccc(-c2cc(=O)n3cc(N4CC[C@H](N(C)C)C4)ccc3n2)cc1F` [Compound 205, 7-[(3S)-3-(dimethylamino)pyrrolidin-1-yl]-2-(3-fluoro-4-methoxyphenyl)-4H-pyrido[1,2-a]pyrimidin-4-one], the melting point lay in the range of 187 to 192 °C. Besides, the EC (1.5-fold increase) in data set [1] was in the range of 0.3 to 1 µM. Moreover, the “maximum fold (Fold) increase” value in data set [2] was “** (a fold increase between >1.2 and ≤1.35 is indicated by two stars (**))”.
For `O=c1cc(-c2cncc(Cl)c2)nc2ccc(N3CCNCC3)cn12` [Compound 94, 2-(5-chloropyridin-3-yl)-7-(piperazin-1-yl)-4H-pyrido[1,2-a]pyrimidin-4-one], the melting point is 208 to 218 °C. Further, in data set [1], the EC (1.5-fold increase) is 1 to 3 µM. For the same compound, in data set [2], the “maximum fold (Fold) increase” value was “*** (a fold increase between >1.35 and ≤1.5 is indicated by three stars (***))”.
With `COc1ccc(-c2cc(=O)n3cc(C4=CCN(C)CC4)ccc3n2)cc1F` [Compound 204, 2-(3-fluoro-4-methoxyphenyl)-7-(1-methyl-1,2,3,6-tetrahydropyridin-4-yl)-4H-pyrido[1,2-a]pyrimidin-4-one], the melting point lay within 129 to 132 °C. In addition, the EC (1.5-fold increase) in data set [1] was < 0.1 µM. In data set [2], the “EC1.5x for Smn protein expression” value is recorded as “**** (an EC1.5x≤0.3 μM is indicated by four stars (****))”; the “maximum fold (Fold) increase” value was “**** (a fold increase between >1.5 and ≤1.65 is indicated by four stars (****))”.
For `COc1ccc(-c2ccc3nc(C4=CCNCC4)cc(=O)n3c2)cc1OC` [Compound 371, 7-(3,4-dimethoxyphenyl)-2-(1,2,3,6-tetrahydropyridin-4-yl)-4H-pyrido[1,2-a]pyrimidin-4-one], the melting point was in the range of 172 to 178 °C. Besides, the EC (1.5-fold increase) in data set [1] fell in the range of 0.1 to 0.3 µM. In data set [2], the “EC1.5x for Smn protein expression” value is “*** (an EC1.5× between >0.3 μM and ≤1 μM is indicated by three stars (***))”; the “maximum fold (Fold) increase” value was “**** (a fold increase between >1.5 and ≤1.65 is indicated by four stars (****))”.
For the compound `COCCNC1CCN(c2cc(C)c3nc(-c4ccc(OC)c(OC)c4)cc(=O)n3c2)CC1` [Compound 456, 2-(3,4-dimethoxyphenyl)-7-{4-[(2-methoxyethyl)amino]piperidin-1-yl}-9-methyl-4H-pyrido[1,2-a]pyrimidin-4-one], the melting point lay within 178 to 182 °C. The EC (1.5-fold increase) in data set [1] fell in the range of 0.1 to 0.3 µM. In addition, the “maximum fold (Fold) increase” value in data set [2] was “*** (a fold increase between >1.35 and ≤1.5 is indicated by three stars (***))”.
